Reference: patent US9682999B2, “Benzofuran compounds for the treatment of hepatitis C virus infections” (Glaxo Group Limited, priority 2011, dated 2017)
Like-named read-outs stand apart in the source and are kept apart here.

Columns and labels:
[1] = test system: sub-genomic HCV NS3-NS5B replicon genotype 1a C316Y (Huh-7 cells); experiment: Replicon luciferase cell based assay, genotype 1a C316Y; conditions: Hepatitis C virus, Huh-7, 48 h, read-out: EC50 1a 316Y
Experimental: (§1) 150 μL of a 1 mM stock solution in DMSO of each test compound was transferred into in the first column of a 96 well, V-bottom microplate, to give 200 times the top concentration of the required dilution series. Aliquots of 50 μL were added to each well of the remaining rows containing 100 μL of DMSO giving a 1:3 dilution series over ten points. Columns 11 and 12 contained DMSO only for the positive and negative control, respectively. 10 μL of each well were transferred into 90 μL of DMEM medium (Invitrogen #41965-039) supplemented with 5% v/v foetal calf serum, 1% v/v non-essential amino acids solution, 100 units/ml penicillin, 100 μg/ml streptomycin and 2 mM L-glutamine to give 20 times the top concentration of the required dilution series.
(§2) Suspensions were prepared from cultures of Huh-7 cells stably transfected with sub-genomic HCV NS3-NS5B replicons of either genotype 1b (the ET subline described by Pietschmann, T., Lohmann, V., Kaul, A., Krieger, N., Rinck, G., Rutter, G., Strand, D. & Bartenschlager, R., Journal of Virology, 2002, 76, 4008-4021), genotype 1a (subline 1.19 constructed in-house from H77 SG-Neo containing adaptive mutations P1496L and S2204I as described by Blight, K. J., McKeating, J. A., Marcotrigiano, J., and Rice, C. M. Journal of Virology, 2003, 77, 3180-3190), genotype 1b C316N (constructed in-house by site directed mutagenesis of the NS5B gene of the ET subline), or genotype 1a C316Y (constructed in-house by site directed mutagenesis of the NS5B gene of H77 SG-Neo containing adaptive mutations P1496L and S2204I as described by Blight, K. J., McKeating, J. A., Marcotrigiano, J., and Rice, C. M. Journal of Virology, 2003, 77, 3180-3190) linked to a firefly luciferase reporter gene. Monolayers nearing confluency were stripped from growth flasks with versene-trypsin solution and the cells re-suspended in assay medium comprising DMEM. 95 μL of suspension containing either 15,000 cells (genotype 1b luciferase replicon) or 20,000 cells (genotype 1a luciferase replicon) were added to all wells of a 96 well plate (Perkin Elmer, #6005686), except medium controls in column 12 of the assay plate. The cell suspension was dosed with 5 μL of compound solution and the plate was incubated for 48 hours at 37° C. in a 5% CO2 atmosphere.
(§3) For toxicity the cells in one plate were treated with Cell Titer Glo (Promega, #G7573). A solution of Cell Titer Glo was prepared according to the manufacturer's instructions, and 100 μL added to each well. The plate was then read for luminescence on an Envision. For potency a solution of Steady Glo (Promega, #E2550) was prepared according to the manufacturer's instructions and 100 μL added to each well. After a twenty minute incubation the plate was then read for luminescence on an Envision.
(§4) Potency: The luminescence values from all compound-free wells containing cells were averaged to obtain a positive control value. The mean luminescence value from the compound-free wells that had received no cells was used to provide the negative (background) control value. The readings from the wells at each compound concentration were taken and after the subtraction of the mean background from all values, were expressed as a percentage of the positive control signal. The quantifiable and specific reduction of luciferase signal in the presence of a drug is a direct measure of replicon inhibition. BioAssay Enterprise (CamebridgeSoft) with the XC50 module for curve fitting was used to plot the curve of percentage inhibition against compound concentration and derive the 50% inhibitory concentration (EC50) for the compound. EC50 is the effective concentration, that is, the concentration of compound where 50% maximal effect is observed. The EC50 values of two identical plates were averaged. The results are presented in Table 1 as EC50 for genotypes (GT) 1a, 1b, 1b 316N and 1a 316Y.

[2] = test system: sub-genomic HCV NS3-NS5B replicon genotype 1b (Huh-7 cells); experiment: Replicon luciferase cell based assay, genotype 1b; conditions: Hepatitis C virus; Huh-7 genotype 1b luciferase replicon, 48 hours; read-out: EC50 GT1b
Experimental: as §1, §2, §3, §4

[3] = test system: sub-genomic HCV NS3-NS5B replicon genotype 1b C316N (Huh-7 cells); experiment: Replicon luciferase cell based assay, genotype 1b C316N; conditions: read-out: EC50 1b 316N
Experimental: as §1, §2, §3, §4

[4] = test system: sub-genomic HCV NS3-NS5B replicon genotype 1a (Huh-7 cells); experiment: Replicon luciferase cell based assay, genotype 1a; conditions: Huh-7 genotype 1a luciferase replicon, 48 hours, read-out: EC50 GT 1a
Experimental: as §1, §2, §3, §4

[5] = In vivo pharmacokinetic study, rat
Experimental: In vivo pharmacokinetic studies were conducted in mouse, rat, dog, or cynomolgus monkey to determine clearance, oral exposure and bioavailability (% F). Solution doses of the compounds were administered intravenously through catheters or orally by gavage. Blood samples were collected at the following time points (n=2 or 3/route/species): 0.083 (IV only), 0.167 (IV only), 0.25, 0.5, 1, 2, 4, 6, 8, 12, and 24 h. Non-compartmental pharmacokinetic parameters were determined using Phoenix Winnonlin 6.1 (Pharsight, Mountain View, Calif.). Bioavailability of the oral formulation of each compound were calculated as the ratio of the oral dose normalized AUCinf to the intravenous dose normalized AUCinf. Results are expressed in Table 2.

Molecule CNC(=O)c1c(-c2ccc(F)cc2)oc2cc(N(c3ccc(C4CCB(O)O4)c(Cl)c3)S(C)(=O)=O)c(C3CC3)cc12 (centres unmarked) [Example 27, 6-(N-(3-Chloro-4-(2-hydroxy-1,2-oxaborolan-5-yl)phenyl)methylsulfonamido)-5-cyclopropyl-2-(4-fluorophenyl)-N-methylbenzofuran-3-carboxamide] has an EC50 [1] of 0.011 to 0.2 µM, an EC50 [2] of 0.001 to 0.01 µM and an EC50 ([3]; Hepatitis C virus, Huh-7, 48 h) of 0.011 to 0.2 µM. It also gave an EC50 ([4]; Hepatitis C virus) of 0.001 to 0.01 µM.

With CNC(=O)c1c(-c2ccc(F)cc2)oc2cc(N(c3ccc(CCB(O)O)c(Cl)c3)S(C)(=O)=O)c(C3CC3)cc12 [Example 23, (2-Chloro-4-(N-(5-cyclopropyl-2-(4-fluorophenyl)-3-(methylcarbamoyl)benzofuran-6-yl)methylsulfonamido)phenethyl)boronic acid] the EC50 [1] was 0.011 to 0.2 µM, the EC50 [2] was 0.001 to 0.01 µM and the EC50 ([3]; Hepatitis C virus, Huh-7, 48 h) was 0.011 to 0.2 µM. The EC50 ([4]; Hepatitis C virus) was 0.001 to 0.01 µM.

In the case of CNC(=O)c1c(-c2ccc(Cl)cc2)oc2cc(N(Cc3ccc(B(O)O)c(F)c3)S(C)(=O)=O)c(C3CC3)cc12 [C], the DNAUC ([5]; Rat) is reported as 434 ng·h/mL/mg/kg, the “T 1/2” value ([5]; Rat) is reported as 1.8 H and the clearance ([5]; rat, blood, intravenous) is reported as 0.936 L/h/kg. For the same molecule, the Vd ([5]; rat, blood, intravenous, read-out: Vss) was 1.1 L/kg and the bioavailability ([5]; rat, blood, oral) was 40%.

CNC(=O)c1c(-c2ccc(F)cc2)oc2cc(N(c3ccc(C4COB(O)C4)c(Cl)c3)S(C)(=O)=O)c(C3CC3)cc12 (centres unmarked) [Example 25, 6-(N-(3-Chloro-4-(2-hydroxy-1,2-oxaborolan-4-yl)phenyl)methylsulfonamido)-5-cyclopropyl-2-(4-fluorophenyl)-N-methylbenzofuran-3-carboxamide] showed an EC50 [1] of 0.011 to 0.2 µM, an EC50 [2] of 0.001 to 0.01 µM and an EC50 ([3]; Hepatitis C virus, Huh-7, 48 h) of 0.011 to 0.2 µM. The EC50 ([4]; Hepatitis C virus) was 0.001 to 0.01 µM.

CNC(=O)c1c(-c2ccc(Cl)cc2)oc2cc(N(c3ccc(B(O)O)c(Cl)c3)S(C)(=O)=O)c(C3CC3)cc12 [Example 2, (2-Chloro-4-(N-(2-(4-chlorophenyl)-5-cyclopropyl-3-(methylcarbamoyl)benzofuran-6-yl)methylsulfonamido)phenyl)boronic acid] showed an EC50 [1] of 0.001 to 0.01 µM, an EC50 [2] of 0.001 to 0.01 µM and an EC50 ([3]; Hepatitis C virus, Huh-7, 48 h) of 0.001 to 0.01 µM. It also gave an EC50 ([4]; Hepatitis C virus) of 0.001 to 0.01 µM.

In the case of CNC(=O)c1c(-c2ccc(F)cc2)oc2cc(N(c3ccc4c(c3)CCOB4O)S(C)(=O)=O)c(C3CC3)cc12 [Example 30], the EC50 [2] is reported as 0.001 to 0.01 µM, the EC50 ([3]; Hepatitis C virus, Huh-7, 48 h) is reported as 0.001 to 0.01 µM and the EC50 ([4]; Hepatitis C virus) is reported as 0.001 to 0.01 µM.

With CNC(=O)c1c(-c2ccc(F)cc2)oc2cc(N(c3ccc(OCB(O)O)cc3)S(C)(=O)=O)c(C3CC3)cc12 [Example 18, ((4-(N-(5-Cyclopropyl-2-(4-fluorophenyl)-3-(methylcarbamoyl)benzofuran-6-yl)methylsulfonamido)phenoxy)methyl)boronic acid] the EC50 [1] was 0.011 to 0.2 µM, the EC50 [2] was 0.001 to 0.01 µM and the EC50 ([3]; Hepatitis C virus, Huh-7, 48 h) was 0.011 to 0.2 µM.

Molecule CS(=O)(=O)N(c1ccc(B(O)O)c(Cl)c1)c1cc2oc(-c3ccc(Cl)cc3)c(C(=O)O)c2cc1C1CC1 [Example 13, 6-(N-(4-borono-3-chlorophenyl)methylsulfonamido)-2-(4-chlorophenyl)-5-cyclopropylbenzofuran-3-carboxylic acid] has an EC50 [2] of over 1 µM, an EC50 ([3]; Hepatitis C virus, Huh-7, 48 h) of over 1 µM and an EC50 ([4]; Hepatitis C virus) of over 1 µM.

CNC(=O)c1c(-c2ccc(F)cc2)oc2cc(N(c3ccc(C4CCB(O)O4)c(Cl)c3)S(C)(=O)=O)c(C3CC3)cc12 (single isomer, unassigned; enantiomer 2) [Example 29, 6-(N-(3-Chloro-4-(2-hydroxy-1,2-oxaborolan-5-yl)phenyl)methylsulfonamido)-5-cyclopropyl-2-(4-fluorophenyl)-N-methylbenzofuran-3-carboxamide, enantiomer 2] showed an EC50 ([3]; Huh-7 genotype 1b C316N luciferase replicon, 48 hours) of 0.011 to 0.2 µM and an EC50 [4] of 0.001 to 0.01 µM.

Molecule CNC(=O)c1c(-c2ccc(F)cc2)oc2cc(N(c3ccc(B(O)O)cn3)S(C)(=O)=O)c(C3CC3)cc12 [Example 8, 6-(N-(5-cyclopropyl-2-(4-fluorophenyl)-3-(methylcarbamoyl)benzofuran-6-yl)methylsulfonamido)pyridin-3-ylboronic acid] has an EC50 [2] of over 1 µM, an EC50 ([3]; Hepatitis C virus, Huh-7, 48 h) of over 1 µM and an EC50 ([4]; Hepatitis C virus) of over 1 µM.
